Results published in publication PMC10888717, “Identification of Novel Non-Nucleoside Inhibitors of Zika Virus NS5 Protein Targeting MTase Activity” (International Journal of Molecular Sciences, 2024).
Like-named read-outs stand apart in the source and are kept apart here.

Key:
ZIKV NS5 MTase = target: T1, ZIKV NS5 MTase (Zika virus, UniProt A0A024B7W1); assay: ZIKV NS5 MTase radioactive filter-binding assay (2′-O-MTase activity); type: biochemical; details: at least two experiments; for IC50: read-out: IC50 (half-maximal inhibitory enzymatic concentration)
T1 construct: KJ776791.2, aa 4–278; His6 (N); made in house; host or cells: Escherichia coli T7 Express Iq
T1 sequence (A0A024B7W1 2524-2798): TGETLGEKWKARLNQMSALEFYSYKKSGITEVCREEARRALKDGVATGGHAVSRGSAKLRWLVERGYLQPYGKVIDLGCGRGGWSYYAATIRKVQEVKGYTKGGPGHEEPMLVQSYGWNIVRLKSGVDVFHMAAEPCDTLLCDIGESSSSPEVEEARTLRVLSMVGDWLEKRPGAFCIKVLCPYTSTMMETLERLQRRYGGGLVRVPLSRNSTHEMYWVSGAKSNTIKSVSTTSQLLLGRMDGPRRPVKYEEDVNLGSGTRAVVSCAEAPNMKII
Description: Selected compounds were evaluated in enzymatic inhibition assays against both ZIKV and DENV 2′-O-MTase activity (For details, see Figure S3 in Supplementary Materials). The screening of compounds at a concentration of 50 µM highlighted a higher inhibitory activity against ZIKV MTase. We thus focused our efforts on ZIKV and determined the IC50 values against ZIKV MTase.
Expression and purification of ZIKV NS5 MTase: The coding sequence of the ZIKV NS5 MTase domain (strain H/PF/2013, GenBank accession no. KJ776791.2, aa 4–278) was synthesized by Genscript and cloned into a pQE30 vector (Qiagen, Hilden, Germany) with an N-terminal His6 tag. The protein was expressed and purified following the procedures described in Coutard et al..
Briefly, after expression in Escherichia coli T7 Express Iq (New England BioLabs) in Terrific Broth at 17 °C overnight, bacterial pellets were resuspended in lysis buffer (50 mM Tris-HCl [pH 8], 300 mM NaCl, 5% glycerol, 0.1% Triton, 10 μg/mL DNase I, 2 tablets of EDTA-free antiprotease cocktail [Roche] and 0.25 mg/mL lysozyme). Following cell lysis and clarification, the protein was purified by affinity on immobilized metal affinity chromatography (IMAC, His prep column [GE Healthcare]), followed by size exclusion chromatography (Superdex S75 HR 16/20 column [GE Healthcare]). The NS5-MTase was concentrated and stored at −20 °C after adding glycerol to a final concentration of 40%.
Filter-binding assay: The transfer of tritiated methyl from ^[3H]SAM onto RNA substrate was monitored by a filter-binding assay (FBA), performed according to the method described previously. FBA was carried out in a reaction mixture [40 mM Tris-HCl (pH 8.0), 1 mM DTT, 2 μM SAM, and 0.1 μM 3H-SAM (Perkin Elmer, Shelton, CT, USA)] in the presence of 0.7 μM synthetic ^7mGpppAC4 and ZIKV NS5 MTase (500 nM). The enzyme was first mixed with an increasing concentration of inhibitors, previously suspended in dimethyl sulfoxide (DMSO), before the addition of RNA substrate and SAM, and then incubated at 30 °C. The final DMSO concentration in reactions was 5%. Reaction mixtures were stopped after 30 min incubation by their 10-fold dilution in ice-cold water. Samples were transferred to diethylaminoethyl (DEAE) filtermat (Perkin Elmer, Shelton, CT, USA) using a Filtermat Harvester (Packard Instruments, Meriden, CT, USA). The RNA-retaining mats were washed twice with 10 mM ammonium formate pH 8.0, twice with water, and once with ethanol before drying. They were soaked with scintillation fluid (Perkin Elmer, Shelton, CT, USA), and 3H-methyl transfer to the RNA substrates was determined using a Wallac MicroBeta TriLux Liquid Scintillation Counter (Perkin Elmer, Shelton, CT, USA). For IC50 measurements, values were normalized and fitted with Prism (GraphPad software version 10.1.1) using the following equation: Y = 100/(1 + ((X/IC50) ^ Hillslope)).

ZIKV [1] = assay: ZIKV inhibitory viral plaque reduction assay in Vero E6 cells; type: cell-based, Zika virus; details: for IC50: Zika virus
[2] = Cytotoxicity assay (MTT) on Vero E6 cells; type: cell-based; details: African green monkey
Description: Compounds characterized by the best anti-enzymatic activity were tested against ZIKV in cellular assays. VERO E6 cells were infected with ZIKV at a multiplicity of infection (M.O.I.) of 0.1, and their activities were evaluated by a plaque reduction assay three days post-infection. Ribavirin was used as a reference compound. As reported in Table 2, compound 1, identified in the first screening, was unable to inhibit viral replication up to a 100 μM concentration. […] The cytotoxicity of the series was determined on the same cell line. […] Their selectivity indexes were calculated as the ratio between CC50 and IC50 values; the results highlight their promising safety profile.
Monolayers of 2.5 × 10^4 Vero E6 cells per well were grown in flat-bottom 96-well culture plates and allowed to adhere overnight. Then, when the cell layers were confluent, the medium was removed, the wells were washed twice with PBS, treated with 100 µL of DMEM with 10 µL DMSO alone (cell positive control) or with various concentrations of anti-NS5 inhibitory compounds under study (compound final concentrations of 100, 10, 1, 0.1, and 0.01 μM), and incubated for 3 days at 37 °C in a CO2. After treatment, an MTT (3-(4,5-dimethylthiazol-2-yl)-2,5-diphenyltetrazolium bromide) kit (Roche, Milan, Italy) was used according to the supplier’s instructions, and the absorbance of each well was determined using a microplate spectrophotometer at a wavelength of 570 nm. Cytotoxicity was calculated by dividing the average optical density of treated samples by the average of DMSO-treated samples (cell positive control).

[3] = Metabolic stability in human liver microsomes; type: in vitro ADME; details: 1 h, 37 °C, three experiments
Description: The metabolic stability was investigated by incubating selected compounds with human liver microsomes (HLMs) for 1 h at 37 °C. The percentage of non-metabolized compounds and metabolites was analyzed by HPLC-UV-MS. […] HPLC analysis confirmed the presence of the oxidated metabolites in small percentages.
(§1) For the ADME property determination, an Agilent 1260 Infinity HPLC-DAD interfaced with an Agilent MSD 6130 (Agilent Technologies, Palo Alto, CA, USA) was used. Chromatographic conditions were optimized using a Phenomenex Kinetex C18-100 Å column (150 × 4.6 mm) with 5 µm particle size and gradient elution with a binary solution (eluent A: H2O; eluent B: ACN; both eluents were acidified with formic acid 0.1% v/v) at room temperature. The LC analyses started with 5% of B (from t = 0 to t = 1 min), then B was increased to 95% (from t = 1 to t = 10 min) and then kept at 95% (from t = 10 to t = 19 min) and finally returned to initial conditions in 1.0 min. The flow rate was 0.6 mL/min and the injection volume was 10 µL.
The test was performed as previously reported with minor modifications. Each compound was dissolved in DMSO and phosphate buffer (0.025 M, pH 7.4), and human liver microsomes (0.2 mg/mL) and a NADPH-regenerating system in MgCl2 48 mM were added to a final volume of 500 µL. This solution was incubated for 1 h at 37 °C and then the reaction was stopped and quenched using 1 mL of ACN. The reaction mixtures were then centrifuged (4000 rpm for 10 min) and the supernatant was taken, dried under nitrogen flow, and then resuspended in 100 µL of methanol. The parent drug and metabolites were subsequently determined using the chromatographic conditions described above. The percentage of non-metabolized compounds was calculated by comparison with reference solutions. The determination of metabolic stability for each compound was performed in three independent experiments.

[4] = Stability test in human plasma; type: in vitro ADME; details: pH 7.4, 37 °C, up to 24 h, read-out: Plasma Stab. (T1/2, h ± SD) (converted)
Description: Finally, compounds were incubated in human plasma at 37 °C for 24 h. […] Taken together, stability studies confirmed that the series is suitable for further development.
as §1
A stock solution of the target compound in DMSO (2 mM) was incubated in a test tube with pooled human plasma (55.7 mg protein/mL) and HEPES buffer (25 mM, 140 mM NaCl pH 7.4) up to a final volume of 1.0 mL. The mixture was incubated at 37 °C, and at set time points (0.0, 0.5, 1, 4, 8, 24 h), samples of 50 µL were taken, mixed with 400 µL of ACN to stop the reaction of plasmatic esterases, and centrifuged at 5000 rpm for 15 min. The supernatant was removed and analyzed using the LC-UV/MS method previously described. The half-life (t½) was calculated according to the following equation: t½=ln 2/k where k represents the substrate elimination constant. For each compound, the determination was performed in three independent experiments.

ZIKV [5] = details: cited from earlier work
[6] = Vero C1008, read-out: IC50 ± SD (half-maximal inhibitory concentration, ZIKV plaque reduction)
[7] = VERO E6 cells, MTT, 3 days, read-out: CC50 ± SD (half-maximal cytotoxic concentration)

| Structure (SMILES) | IC50 (ZIKV NS5 MTase) [µM] | SI (Selectivity Index, ratio between CC50 and IC50) (ZIKV [1]; VERO E6 cells) | other results |
| --- | --- | --- | --- |
| O=C(Nc1ccc2c(c1)C(=O)NC2)c1cc2cc([N+](=O)[O-])ccc2s1 [Compound 2] | 20 | – | – |
| CN1C(=O)c2ccc(NC(=O)c3cc4cc([N+](=O)[O-])ccc4s3)cc2C1=O [Compound 3] | 16.6 | >3.49 | IC50 (ZIKV [1]; [6]): 28.6 ± 1.3 µM; CC50 at 3 days [2, 7]: > 100 µM |
| NS(=O)(=O)c1cccc(NC(=O)c2cc3cc([N+](=O)[O-])ccc3s2)c1 [Compound 4] | 34 | – | – |
| NC(=O)c1ccc(NC(=O)c2cc3cc([N+](=O)[O-])ccc3s2)cc1 [Compound 5] | 37 | – | – |
| O=C(O)c1ccc(NC(=O)c2cc3cc([N+](=O)[O-])ccc3s2)cc1 [Compound 6] | 50 | – | – |
| O=C(Nc1ccccc1)c1cc2cc([N+](=O)[O-])ccc2s1 [Compound 7] | 57 | – | – |
| CN1C(=O)c2ccc(NC(=O)c3cc4cc([N+](=O)[O-])ccc4o3)cc2C1=O [Compound 8] | 22.6 | >52.63 | HLM Stab.% ± SD (percentage of non-metabolized compound) [3]: 96.93 ± 0.57%; IC50 (ZIKV [1]; [6]): 1.9 ± 0.3 µM; CC50 at 3 days [2, 7]: > 100 µM; half-life [4]: 7.31 ± 0.17 h |
| CN1C(=O)c2ccc(NC(=O)c3cc4ccccc4o3)cc2C1=O [Compound 9] | > 100 | – | IC50 (half-maximal inhibitory enzymatic concentration) (ZIKV NS5 MTase): completely inactive |
| NC(=O)c1ccc(NC(=O)c2cc3ccccc3s2)cc1 [Compound 10] | 36 | – | – |
| CNC(=O)c1ccc(NC(=O)c2cc3ccccc3s2)cc1 [Compound 11] | > 100 | – | IC50 (half-maximal inhibitory enzymatic concentration) (ZIKV NS5 MTase): completely abolished the activity |
| CNC(=O)c1cccc(NC(=O)c2cc3ccccc3s2)c1 [Compound 12] | > 100 | – | IC50 (half-maximal inhibitory enzymatic concentration) (ZIKV NS5 MTase): completely abolished the activity |
| O=C(Nc1ccc2c(c1)C(=O)NC2)c1cc2ccccc2s1 [Compound 13] | 46 | – | – |
| CN1C(=O)c2ccc(NC(=O)c3cc4ccccc4s3)cc2C1=O [Compound 14] | 31 | – | – |
| CN1C(=O)c2ccc(NC(=O)c3cc4cc(Cl)ccc4s3)cc2C1=O [Compound 15] | 14.2 | >71.43 | HLM Stab.% ± SD (percentage of non-metabolized compound) [3]: 98.57 ± 0.07%; IC50 (ZIKV [1]; [6]): 1.4 ± 0.3 µM; CC50 at 3 days [2, 7]: > 100 µM; half-life [4]: > 24 h |
| CN1C(=O)c2ccc(NC(=O)c3sc4ccccc4c3Cl)cc2C1=O [Compound 16] | 13.1 | >38.46 | IC50 (ZIKV [1]; [6]): 2.6 ± 0.2 µM; CC50 at 3 days [2, 7]: > 100 µM |
| CN1C(=O)c2ccc(NC(=O)c3cc4c(Cl)cccc4s3)cc2C1=O [Compound 18] | 100 | – | – |
| Cc1ccc2sc(C(=O)Nc3ccc4c(c3)C(=O)N(C)C4=O)cc2c1 [Compound 19] | 40 | – | – |
| Cc1cccc2cc(C(=O)Nc3ccc4c(c3)C(=O)N(C)C4=O)sc12 [Compound 20] | 18.9 | >15.15 | HLM Stab.% ± SD (percentage of non-metabolized compound) [3]: 98.40 ± 0.12%; IC50 (ZIKV [1]; [6]): 6.6 ± 0.5 µM; CC50 at 3 days [2, 7]: > 100 µM; half-life [4]: > 24 h |
| CCN(CC)CCCC(C)Nc1ccnc2cc(Cl)ccc12 (centres unmarked) [chloroquine] | – | – | EC50 (ZIKV [5]; read-out: in vitro EC50 against ZIKV): ~5 µM |
| NC(=O)c1ncn([C@@H]2O[C@H](CO)[C@@H](O)[C@H]2O)n1 [ribavirin, 1-β-d-Ribofuranosyl-1,2,4-Triazole-3-Carboxamide, reference compound] | – | 1.05 | EC50 against ZIKV (ZIKV [5]): high micromolar range; IC50 (ZIKV [1]; Vero C1008, VERO E6 cells, ZIKV M.O.I. 0.1, at least two experiments, read-out: IC50 ± SD (half-maximal inhibitory concentration, ZIKV plaque reduction)): 95.5 ± 0.6 µM; CC50 at 3 days [2]: 100 ± 14 µM |
